Where no end group is shown, it is not given here.
Test system: Sheep Red Cells
Assay: lysis of sheep red blood cells (lysis assay or SRC plate assay)
Assay type: cell-based
Conditions: for Lethal concentration, SRC = Sheep Red Cells: Table 3; for concentration lytic to sheep red blood cells: running text
Experimental: These values were obtained by either the lysis assay normally used for melittin or by an adaptation of the antibacterial inhibition zone assay of the above-cited Hultmark et al articles to plates with sheep red cells (SRC). With respect to the latter, sterile agarose plates contained 6 ml of medium With 1% agarose, 0.9% NaCl and 10% SRC suspended in Alsevers solution. A dilution series of peptide was applied in 3 mm wells each loaded with 3 μl of the respective samples. The plates were incubated at 30° C. for 24 h, the zones were recorded and LC values calculated as described in the Hultmark et al articles. Clear zones were recorded after a few hours of incubation and the use of such data gave an LC value of the same order as readings after 24 h. This plate assay is faster and more convenient than the lysis assay normally used for melittin.

[1] = Table 2, no incubation footnote
[2] = Table 2, footnote a: incubation overnight at 30° C. as well as at 37° C.

| Compound | Lethal concentration, Sheep Red Cells [1] | Lethal concentration, SRC = Sheep Red Cells | also measured |
| --- | --- | --- | --- |
| CC[C@H](C)[C@H](NC(=O)CNC(=O)[C@@H](NC(=O)[C@H](CCCCN)NC(=O)[C@H](CCCCN)NC(=O)[C@H](Cc1ccccc1)NC(=O)[C@H](CC(C)C)NC(=O)[C@H](CCCCN)NC(=O)[C@H](Cc1c[nH]c2ccccc12)NC(=O)[C@@H](N)CCCCN)[C@@H](C)CC)C(=O)NCC(=O)N[C@@H](C)C(=O)N[C@H](C(=O)N[C@@H](CC(C)C)C(=O)N[C@@H](CCCCN)C(=O)N[C@H](C(=O)N[C@@H](CC(C)C)C(=O)N[C@H](C(=O)N[C@H](C(=O)NCC(N)=O)[C@@H](C)O)[C@@H](C)O)C(C)C)C(C)C [CA(1-8)M(1-12)] | > 600 µM |  |  |
| CC[C@H](C)[C@H](NC(=O)CNC(=O)[C@@H](NC(=O)[C@H](CCCCN)NC(=O)[C@H](CCCCN)NC(=O)[C@H](Cc1ccccc1)NC(=O)[C@H](CC(C)C)NC(=O)[C@H](CCCCN)NC(=O)[C@H](Cc1c[nH]c2ccccc12)NC(=O)[C@@H](N)CCCCN)[C@@H](C)CC)C(=O)NCC(=O)N[C@@H](C)C(=O)N[C@H](C(=O)N[C@@H](CC(C)C)C(=O)N[C@@H](CCCCN)C(=O)N[C@H](C(=O)N[C@@H](CC(C)C)C(=O)N[C@H](C(=O)N[C@H](C(=O)NCC(=O)N[C@@H](CC(C)C)C(=O)N1CCC[C@H]1C(=O)N[C@@H](C)C(=O)N[C@@H](CC(C)C)C(=O)N[C@H](C(=O)N[C@@H](CO)C(N)=O)[C@@H](C)CC)[C@@H](C)O)[C@@H](C)O)C(C)C)C(C)C [CA(1-8)M(1-18)] |  | 600 µM |  |
| CC[C@H](C)[C@H](NC(=O)[C@H](CC(C)C)NC(=O)[C@H](C)NC(=O)[C@@H]1CCCN1C(=O)[C@H](CC(C)C)NC(=O)CNC(=O)[C@@H](NC(=O)[C@@H](NC(=O)[C@H](CC(C)C)NC(=O)[C@@H](NC(=O)[C@H](CCCCN)NC(=O)[C@H](CC(C)C)NC(=O)[C@@H](NC(=O)[C@H](C)NC(=O)CNC(=O)[C@@H](NC(=O)CNC(=O)[C@H](CCC(=O)O)NC(=O)[C@@H](NC(=O)[C@H](CCCCN)NC(=O)[C@H](CCCCN)NC(=O)[C@H](Cc1ccccc1)NC(=O)[C@H](CC(C)C)NC(=O)[C@H](CCCCN)NC(=O)[C@H](Cc1c[nH]c2ccccc12)NC(=O)[C@@H](N)CCCCN)[C@@H](C)CC)[C@@H](C)CC)C(C)C)C(C)C)[C@@H](C)O)[C@@H](C)O)C(N)=O [CA(1-9)M(1-17)] |  | 600 µM |  |
| CC[C@H](C)[C@H](NC(=O)CNC(=O)[C@H](CCC(N)=O)NC(=O)CNC(=O)[C@@H](NC(=O)[C@H](CCCCN)NC(=O)[C@H](CCC(=O)O)NC(=O)[C@@H](NC(=O)[C@H](CCCCN)NC(=O)[C@H](CCCCN)NC(=O)[C@H](Cc1ccccc1)NC(=O)[C@H](CC(C)C)NC(=O)[C@H](CCCCN)NC(=O)[C@H](Cc1c[nH]c2ccccc12)NC(=O)[C@@H](N)CCCCN)[C@@H](C)CC)C(C)C)C(=O)NCC(=O)N[C@@H](C)C(=O)N[C@H](C(=O)N[C@@H](CC(C)C)C(=O)N[C@@H](CCCCN)C(=O)N[C@H](C(=O)N[C@@H](CC(C)C)C(=O)N[C@H](C(=O)N[C@H](C(=O)NCC(=O)N[C@@H](CC(C)C)C(N)=O)[C@@H](C)O)[C@@H](C)O)C(C)C)C(C)C [CA(1-13)M(1-13)] |  |  | Lethal concentration, Sheep Red Cells [2]: > 200 µM; concentration lytic to sheep red blood cells: ≥ 100 µM; concentration lytic to sheep red blood cells (listed as CA(1-13) M(1-13)): greater than 200 μM |
| CC[C@H](C)[C@H](NC(=O)CNC(=O)[C@@H]1CCCN1C(=O)CNC(=O)[C@H](C)NC(=O)[C@H](CCCCN)NC(=O)[C@@H](NC(=O)[C@@H](NC(=O)CNC(=O)[C@H](CC(=O)O)NC(=O)[C@H](CCCNC(=N)N)NC(=O)[C@@H](NC(=O)[C@H](CC(N)=O)NC(=O)[C@H](CCC(N)=O)NC(=O)CNC(=O)[C@@H](NC(=O)[C@H](CCCCN)NC(=O)[C@H](CCC(=O)O)NC(=O)[C@@H](NC(=O)[C@H](CCCCN)NC(=O)[C@H](CCCCN)NC(=O)[C@H](Cc1ccccc1)NC(=O)[C@H](CC(C)C)NC(=O)[C@H](CCCCN)NC(=O)[C@H](Cc1c[nH]c2ccccc12)NC(=O)[C@@H](N)CCCCN)[C@@H](C)CC)C(C)C)[C@@H](C)CC)[C@@H](C)CC)[C@@H](C)CC)C(=O)NCC(=O)N[C@@H](C)C(=O)N[C@H](C(=O)N[C@@H](CC(C)C)C(=O)N[C@@H](CCCCN)C(=O)N[C@H](C(=O)N[C@@H](CC(C)C)C(=O)N[C@H](C(=O)N[C@H](C(=O)NCC(=O)N[C@@H](CC(C)C)C(N)=O)[C@@H](C)O)[C@@H](C)O)C(C)C)C(C)C [CA(1-24)M(1-13)] |  |  | Lethal concentration, Sheep Red Cells [2]: > 200 µM; concentration lytic to sheep red blood cells: ≥ 100 µM |
| CC[C@H](C)[C@H](NC(=O)[C@H](CCC(N)=O)NC(=O)[C@@H](NC(=O)[C@H](C)NC(=O)[C@H](CCC(N)=O)NC(=O)CNC(=O)[C@@H](NC(=O)[C@@H](NC(=O)[C@H](C)NC(=O)[C@@H](NC(=O)[C@H](C)N)C(C)C)C(C)C)C(C)C)[C@@H](C)O)C(=O)N[C@@H](C)C(=O)N[C@@H](CCCCN)C(=O)N[C@@H](CCCCN)C(=O)N[C@@H](Cc1c[nH]c2ccccc12)C(=O)N[C@@H](CCCCN)C(=O)N[C@@H](CC(C)C)C(=O)N[C@@H](Cc1ccccc1)C(=O)N[C@@H](CCCCN)C(=O)N[C@@H](CCCCN)C(=O)N[C@H](C(=O)N[C@@H](CCC(=O)O)C(=O)N[C@@H](CCCCN)C(=O)N[C@H](C(=O)NCC(=O)N[C@@H](CCC(N)=O)C(N)=O)C(C)C)[C@@H](C)CC [CA(25-37)CA(1-13)] |  |  | Lethal concentration, Sheep Red Cells (Table 2, footnote b: incubation overnight at 30° C.): > 300 µM |
| CC[C@H](C)[C@H](NC(=O)CNC(=O)[C@H](CCCNC(=N)N)NC(=O)CNC(=O)[C@H](CCSC)NC(=O)[C@H](CCCCN)NC(=O)[C@H](CCC(=O)O)NC(=O)[C@@H](NC(=O)[C@H](CCCCN)NC(=O)[C@H](CCCCN)NC(=O)[C@H](Cc1ccccc1)NC(=O)[C@@H](NC(=O)[C@H](CCCCN)NC(=O)[C@H](Cc1c[nH]c2ccccc12)NC(=O)[C@@H](N)CCCCN)C(C)C)[C@@H](C)CC)C(=O)NCC(=O)N[C@@H](C)C(=O)N[C@H](C(=O)N[C@@H](CC(C)C)C(=O)N[C@@H](CCCCN)C(=O)N[C@H](C(=O)N[C@@H](CC(C)C)C(=O)N[C@H](C(=O)N[C@H](C(=O)NCC(=O)N[C@@H](CC(C)C)C(N)=O)[C@@H](C)O)[C@@H](C)O)C(C)C)C(C)C [CB(1-13)M(1-13)] |  | 400 µM |  |
| CC[C@H](C)[C@H](NC(=O)CN)C(=O)NCC(=O)N[C@@H](C)C(=O)N[C@H](C(=O)N[C@@H](CC(C)C)C(=O)N[C@@H](CCCCN)C(=O)N[C@H](C(=O)N[C@@H](CC(C)C)C(=O)N[C@H](C(=O)N[C@H](C(=O)NCC(=O)N[C@@H](CC(C)C)C(=O)N[C@@H](CCCCN)C(=O)N[C@@H](Cc1c[nH]c2ccccc12)C(=O)N[C@@H](CCCCN)C(=O)N[C@@H](CC(C)C)C(=O)N[C@@H](Cc1ccccc1)C(=O)N[C@@H](CCCCN)C(=O)N[C@@H](CCCCN)C(=O)N[C@H](C(=O)N[C@@H](CCC(=O)O)C(=O)N[C@@H](CCCCN)C(=O)N[C@H](C(=O)NCC(=O)N[C@@H](CCC(N)=O)C(N)=O)C(C)C)[C@@H](C)CC)[C@@H](C)O)[C@@H](C)O)C(C)C)C(C)C [M(1-13)CA(1-13)] | 80 µM | 80 µM |  |
| CC[C@H](C)[C@H](NC(=O)CN)C(=O)NCC(=O)N[C@@H](C)C(=O)N[C@H](C(=O)N[C@@H](CC(C)C)C(=O)N[C@@H](CCCCN)C(=O)N[C@H](C(=O)N[C@@H](CC(C)C)C(=O)N[C@H](C(=O)N[C@H](C(=O)NCC(=O)N[C@@H](CC(C)C)C(=O)N[C@@H](CCCCN)C(=O)N[C@@H](Cc1c[nH]c2ccccc12)C(=O)N[C@@H](CCCCN)C(=O)N[C@@H](CC(C)C)C(=O)N[C@@H](Cc1ccccc1)C(=O)N[C@@H](CCCCN)C(=O)N[C@@H](CCCCN)C(=O)N[C@H](C(=O)N[C@@H](CCC(=O)O)C(=O)N[C@@H](CCCCN)C(=O)N[C@H](C(=O)NCC(=O)N[C@@H](CCC(N)=O)C(=O)N[C@@H](CC(N)=O)C(=O)N[C@H](C(=O)N[C@@H](CCCNC(=N)N)C(=O)N[C@@H](CC(=O)O)C(=O)NCC(=O)N[C@H](C(=O)N[C@H](C(=O)N[C@@H](CCCCN)C(=O)N[C@@H](C)C(N)=O)[C@@H](C)CC)[C@@H](C)CC)[C@@H](C)CC)C(C)C)[C@@H](C)CC)[C@@H](C)O)[C@@H](C)O)C(C)C)C(C)C [M(1-13)CA(1-22)] |  | 40 µM |  |
| CC[C@H](C)[C@H](NC(=O)CNC(=O)[C@H](CCC(N)=O)NC(=O)[C@H](CCC(N)=O)NC(=O)[C@H](CCCNC(=N)N)NC(=O)[C@H](CCCCN)NC(=O)[C@H](CCCNC(=N)N)NC(=O)[C@H](CCCCN)NC(=O)[C@@H](NC(=O)[C@H](Cc1c[nH]c2ccccc12)NC(=O)[C@H](CO)NC(=O)[C@@H](NC(=O)[C@@H](N)CC(C)C)[C@@H](C)CC)[C@@H](C)CC)C(=O)NCC(=O)N[C@@H](C)C(=O)N[C@H](C(=O)N[C@@H](CC(C)C)C(=O)N[C@@H](CCCCN)C(=O)N[C@H](C(=O)N[C@@H](CC(C)C)C(=O)N[C@H](C(=O)N[C@H](C(=O)NCC(=O)N[C@@H](CC(C)C)C(N)=O)[C@@H](C)O)[C@@H](C)O)C(C)C)C(C)C [M(16-26)M(1-13)] |  |  | improvement in red cell lysis concentration over natural melittin (240 μM versus 4-6 μM): 40-60 fold; Lethal concentration, Sheep Red Cells [2]: > 200 µM; concentration lytic to sheep red blood cells: > 240 µM |
| KWKLFKKAVLKVLTT-NH2 [CA(1-7)M(4-11)] | > 600 µM |  |  |
| KWKLFKKGAVLKVLT-NH2 [CA(1-7)M(3-10)] | > 600 µM |  |  |
| KWKLFKKGIGAVLKV-NH2 [CA(1-7)M(1-8)] | > 200 µM |  |  |
| KWKLFKKIEKVGQNIRDGGIGAVLKV-NH2 [CA(1-18)M(1-8)] |  | 600 µM |  |
| KWKLFKKIEKVGQNIRDGIGAVLKVL-NH2 [CA(1-17)M(1-9)] |  | 600 µM |  |
| KWKLFKKIGAVLKVL-NH2 [CA(1-7)M(2-9)] | > 600 µM |  |  |

— patent US5714467A, “Antibacterial and antimalarial hybrid peptides” (The Rockefeller University, priority 1993, dated 1998)
